Measurements: ChEMBL document CHEMBL1201862, “PubChem BioAssay data set” (2004)
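The compound was tested at five concentrations on cells cultured in 96-well plates, with a 48-hour exposure period. Here, GI50 denotes the concentration required for 50% inhibition of growth.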 The source made the active and inactive calls. No stated cut-off is given here; in the data, active = GI50 up to about 1.1 µM and inactive = higher.

How the values were obtained:
Test in all cases: inhibition of tumour cell growth, NCI panel, 48 h
K562 = tested on: K562
SW-620 = tested on: SW-620
A498 = tested on: A498
SF-539 = tested on: SF-539
M19-MEL = tested on: M19-MEL
EKVX = tested on: EKVX
HOP-62 = tested on: HOP-62
HT-29 = tested on: HT-29
HCT-15 = tested on: HCT-15
HCC 2998 = tested on: HCC 2998
U-251 = tested on: U-251
RPMI-8226 = tested on: RPMI-8226
Malme-3M = tested on: Malme-3M
SK-MEL-28 = tested on: SK-MEL-28
MOLT-4 = tested on: MOLT-4
DLD-1 = tested on: DLD-1
TK-10 = tested on: TK-10
UACC-257 = tested on: UACC-257
NCI-H23 = tested on: NCI-H23
NCI-H460 = tested on: NCI-H460
SNB-19 = tested on: SNB-19
UO-31 = tested on: UO-31
SK-MEL-2 = tested on: SK-MEL-2
786-0 = tested on: 786-0
HL-60 = tested on: HL-60
ACHN = tested on: ACHN
LOX IMVI = tested on: LOX IMVI
RXF 631 = tested on: RXF 631
CCRF-CEM = tested on: CCRF-CEM
LXFL 529 = tested on: LXFL 529
SN12C = tested on: SN12C
DMS-273 = tested on: DMS-273
IGROV-1 = tested on: IGROV-1
SR = tested on: SR
A549 = tested on: A549
OVCAR-4 = tested on: OVCAR-4
XF498 = tested on: XF498
SNB-75 = tested on: SNB-75
UACC-62 = tested on: UACC-62
COLO 205 = tested on: COLO 205
OVCAR-3 = tested on: OVCAR-3
SF-268 = tested on: SF-268
OVCAR-8 = tested on: OVCAR-8
DMS-114 = tested on: DMS-114
HCT-116 = tested on: HCT-116
RXF 393 = tested on: RXF 393
KM-20L2 = tested on: KM-20L2
HOP-92 = tested on: HOP-92
HOP-18 = tested on: HOP-18
CAKI-1 = tested on: CAKI-1
NCI-H226 = tested on: NCI-H226
SF-295 = tested on: SF-295
NCI-H522 = tested on: NCI-H522
SK-OV-3 = tested on: SK-OV-3
KM12 = tested on: KM12
M14 = tested on: M14
OVCAR-5 = tested on: OVCAR-5
SNB-78 = tested on: SNB-78
SK-MEL-5 = tested on: SK-MEL-5

## Oc1cc(-c2ccco2)nc2cc3c(cc12)OCO3
K562
  GI50: 6.61 µM (inactive)
SW-620
  GI50: 25.9 µM (inactive)
A498
  GI50: 35.6 µM (inactive)
SF-539
  GI50: 25.7 µM (inactive)
M19-MEL
  GI50: 44.9 µM (inactive)
EKVX
  GI50: > 100 µM (inactive)
HOP-62
  GI50: 10.9 µM (inactive)
HT-29
  GI50: 43.3 µM (inactive)
HCT-15
  GI50: 38.3 µM
HCC 2998
  GI50: > 100 µM (inactive)
U-251
  GI50: > 100 µM (inactive)
RPMI-8226
  GI50: 40.1 µM (inactive)
Malme-3M
  GI50: 42.4 µM (inactive)
SK-MEL-28
  GI50: > 100 µM (inactive)
MOLT-4
  GI50: 33.7 µM (inactive)
DLD-1
  GI50: 39 µM (inactive)
TK-10
  GI50: 72.6 µM (inactive)
UACC-257
  GI50: 60 µM (inactive)
NCI-H23
  GI50: 80.9 µM (inactive)
NCI-H460
  GI50: 34.3 µM (inactive)
SNB-19
  GI50: 27.1 µM (inactive)
UO-31
  GI50: 46.2 µM (inactive)
SK-MEL-2
  GI50: 57.8 µM (inactive)
786-0
  GI50: 26.5 µM (inactive)
HL-60
  GI50: 27.7 µM (inactive)
ACHN
  GI50: 91 µM (inactive)
LOX IMVI
  GI50: 50.6 µM (inactive)
RXF 631
  GI50: 52.2 µM (inactive)
CCRF-CEM
  GI50: 38.4 µM (inactive)
LXFL 529
  GI50: 58.9 µM (inactive)
SN12C
  GI50: 55.5 µM (inactive)
DMS-273
  GI50: 20 µM (inactive)
IGROV-1
  GI50: 29.6 µM (inactive)
SR
  GI50: 54.3 µM (inactive)
A549
  GI50: 52.8 µM (inactive)
OVCAR-4
  GI50: 34.1 µM (inactive)
XF498
  GI50: 39.8 µM (inactive)
SNB-75
  GI50: 12.5 µM (inactive)
UACC-62
  GI50: 27.9 µM (inactive)
COLO 205
  GI50: 17.6 µM (inactive)

## NC1=NN(c2ccccc2)C(=O)C1C(=O)C(=O)Nc1nccs1 (stereo not drawn)
K562
  GI50: > 100 µM (inactive)
SW-620
  GI50: > 100 µM (inactive)
OVCAR-3
  GI50: > 100 µM (inactive)
A498
  GI50: > 100 µM (inactive)
SF-539
  GI50: > 100 µM (inactive)
M19-MEL
  GI50: > 100 µM (inactive)
EKVX
  GI50: > 100 µM (inactive)
HOP-62
  GI50: > 100 µM (inactive)
HT-29
  GI50: > 100 µM (inactive)
SF-268
  GI50: > 100 µM (inactive)
HCT-15
  GI50: > 100 µM
OVCAR-8
  GI50: > 100 µM (inactive)
HCC 2998
  GI50: > 100 µM (inactive)
DMS-114
  GI50: > 100 µM (inactive)
U-251
  GI50: > 100 µM (inactive)
HCT-116
  GI50: > 100 µM (inactive)
RPMI-8226
  GI50: > 100 µM (inactive)
RXF 393
  GI50: > 100 µM (inactive)
Malme-3M
  GI50: > 100 µM (inactive)
KM-20L2
  GI50: > 100 µM (inactive)
HOP-92
  GI50: > 100 µM (inactive)
SK-MEL-28
  GI50: > 100 µM (inactive)
HOP-18
  GI50: > 100 µM (inactive)
MOLT-4
  GI50: > 100 µM (inactive)
DLD-1
  GI50: > 100 µM (inactive)
TK-10
  GI50: > 100 µM (inactive)
UACC-257
  GI50: > 100 µM (inactive)
NCI-H23
  GI50: > 100 µM (inactive)
NCI-H460
  GI50: > 100 µM (inactive)
CAKI-1
  GI50: > 100 µM (inactive)
NCI-H226
  GI50: > 100 µM (inactive)
SNB-19
  GI50: > 100 µM (inactive)
UO-31
  GI50: > 100 µM (inactive)
SK-MEL-2
  GI50: > 100 µM (inactive)
786-0
  GI50: > 100 µM (inactive)
SF-295
  GI50: > 100 µM (inactive)
HL-60
  GI50: > 100 µM (inactive)
ACHN
  GI50: > 100 µM (inactive)
NCI-H522
  GI50: > 100 µM (inactive)
SK-OV-3
  GI50: > 100 µM (inactive)
LOX IMVI
  GI50: > 100 µM (inactive)
RXF 631
  GI50: > 100 µM (inactive)
KM12
  GI50: > 100 µM (inactive)
CCRF-CEM
  GI50: > 100 µM (inactive)
M14
  GI50: > 100 µM (inactive)
LXFL 529
  GI50: > 100 µM (inactive)
SN12C
  GI50: > 100 µM (inactive)
OVCAR-5
  GI50: > 100 µM (inactive)
SNB-78
  GI50: > 100 µM (inactive)
DMS-273
  GI50: > 100 µM (inactive)
IGROV-1
  GI50: > 100 µM (inactive)
SK-MEL-5
  GI50: > 100 µM (inactive)
SR
  GI50: > 100 µM (inactive)
A549
  GI50: > 100 µM (inactive)
OVCAR-4
  GI50: > 100 µM (inactive)
SNB-75
  GI50: 62.1 µM (inactive)
UACC-62
  GI50: > 100 µM (inactive)
COLO 205
  GI50: > 100 µM (inactive)
